Source: patent US5589489A, “Cyclic amide derivatives for treating asthma” (Zeneca Limited, priority 1993, dated 1996)
Structures can show the parent of a compound that is named as a salt.

Target: T1, guinea pig trachea (Cavia porcellus, UniProt Q64077)
T1 construct: functional assay in guinea pig trachea; from tissue; host or cells: guinea pig trachea (male animals), tracheal rings
T1 sequence (Q64077 1-402): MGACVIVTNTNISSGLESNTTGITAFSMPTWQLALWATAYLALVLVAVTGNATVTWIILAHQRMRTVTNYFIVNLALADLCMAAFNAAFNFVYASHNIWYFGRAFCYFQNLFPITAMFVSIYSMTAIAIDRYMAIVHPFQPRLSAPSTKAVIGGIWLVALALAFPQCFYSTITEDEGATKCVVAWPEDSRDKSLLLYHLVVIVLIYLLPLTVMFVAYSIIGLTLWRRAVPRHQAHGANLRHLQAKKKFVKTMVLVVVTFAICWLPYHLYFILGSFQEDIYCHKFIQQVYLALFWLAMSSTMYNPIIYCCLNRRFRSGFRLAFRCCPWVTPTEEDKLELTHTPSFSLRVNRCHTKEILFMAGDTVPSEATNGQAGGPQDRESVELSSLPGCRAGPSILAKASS
Test: Guinea Pig Assay (Test B), functional antagonism of NKA or [β-ala8]-NKA(4-10) in guinea pig trachea
Type: cell-based
Details: read-out: pKB (-log molar KB, apparent dissociation constant) (converted)
Method: The chosen agonist is refered to as AG throughout the description.
Male guinea pigs are killed by a sharp blow to the back of the head. The trachea are removed, trimmed of excess tissue and divided into two segments. Each segment is suspended as a ring between stainless steel stirrups in water-jacketed (37.5° C.) tissue baths containing a physiological salt solution of the following composition (mM): NaCl, 119; KCl 4.6; CaCl2, 1.8; MgCl2, 0.5; NaH2 PO4, 1; NaHCO3, 25; glucose, 11; thiorphan, 0.001; and indomethacin, 0.005; gassed continuously with 95% O2 -%5 CO2. […] Contractile responses are measured on a Grass polygraph via Grass FT-03 force transducers.
Tissues are challenged repetitively with a single concentration of AG (10 nM) with intervening 30 min periods with washing to allow the tension to return to baseline levels. […] Percent inhibition is determined when a Compound produces a statistically significant (p<0.05) reduction of the contraction and is calculated using the second contractile response as 100%.
Potencies of selected Compounds are evaluated by calculating apparent dissociation constants (KB) for each concentration tested using the standard equation: […]
where dose ratio=antilog[(AG -log molar EC50 without Compound)-(AG -log molar EC50 with Compound)]. The KB values may be converted to the negative logarithms and expressed as -log molar KB (i.e. pKB). […]

Compound: CN1C(=O)c2ccccc2[C@H]1[C@@H](CCN1CCC(O)(c2ccccc2)CC1)c1ccc(Cl)c(Cl)c1 (single isomer, unassigned) [Example 4, (-)-(3R/3S)-3-[(1S/1R)-1-(3,4-dichlorophenyl)-3-(4-hydroxy-4-phenylpiperidino)propyl]-2-methyl-2,3-dihydroisoindol-1-one hydrochloride]
- Kb: 20 nM
